Measurements reported in US20240165097A1, “PHARMACEUTICAL COMPOSITION FOR THE TREATMENT OF ALZHEIMER'S DISEASE OR DEMENTIA” (Heptares Therapeutics Limited, priority 2021, published 2024).

Experiments:
[1] = system: patients with mild-to-moderate AD; assay: Example D: Cogstate neuropsychological test battery; assay type: in vivo, human
Excerpt: (§1) Exploratory PD effects of HTL0018318 were examined via both behavioural (Cogstate neuropsychological test battery [NTB]) tests of cognitive function and electrophysiological (electroencephalogram [EEG] and evoked response potentials [ERPs]) biomarkers. Further details of each biomarker/test and outcome variables are provided below. Twelve-item neuropsychiatric inventory (NPI-12) scores were used to evaluate neuropsychiatric symptoms.
Exploratory pharmacodynamic endpoints (Cogstate tests and EEG/evoked response potential [ERP] biomarkers) were evaluated at screening (practice sessions) and baseline visits, and on Day 28±1. While this study was not powered to detect PD effects of small to moderate ESs, the study sample size provided approximately 80% power to detect a large ES of 0.97 for these endpoints using a significance level of 0.10.
A Cogstate neuropsychological test battery (NTB; http://www.Cogstate.com/) was administered as a computerised test, with the following cognitive tasks included in the battery. The total duration of the battery was approximately 30-40 minutes: • Identification (IDN)—reaction time (attention) • International shopping list immediate recall (ISL) and international shopping list-delayed recall (ISRL)—number of words recalled (episodic memory/verbal learning) • One back test (ONB)—accuracy and reaction time (working memory/executive function) • Groton maze learning (GML; forward and reverse maze learning)—accuracy (executive function)
The IDN is a measure of choice reaction time. In this task, an event (ie, a card turning face-up) occurs in the centre of the computer screen, and the patient must decide “YES” or “NO” as to whether or not this event meets a predefined and unchanging criterion (is the colour of the card red?). For this test, the primary dependent measure of the study was mean of the log10 transformed reaction times for correct responses.
The ISL and ISRL are a computer controlled verbal learning/episodic memory test. In this test, patients are read a list of 12 words. Each word is a concrete noun and describes an item of food that is found commonly in the culture/society in which testing is occurring. The examiner tells the patients “I am going to read to you a list of items I want you to get from the supermarket/store/market/shop”. After the 12 words have been read, the patient tries to recall as many of the words as they can immediately (ie, ISL immediate recall). Once they can recall no more words, the same list is read a second time with the words in the same order, after the same instruction. The process of reading the list and waiting for responses occurs 3 times. At the completion of the computerised battery (and with a minimum 20-minute delay) the patient is asked to recall as many of the items as they can from the shopping list (ISL delayed recall; ie, ISRL). For both ISL and ISRL tests, the primary dependent measure was number of words recalled.
The ONB memory task is a valid measure of working memory. In this task, the patient is shown a single stimulus in the centre of the computer screen (ie, a card turns face-up). He or she must decide “YES” or “NO” as to whether or not the current card matches the card that was seen on the immediately previous trial. The software measures the speed and accuracy of each response. For this test, the primary dependent measure of the study was arcsine transformation of the proportion of correct responses (i.e. accuracy).
The modified GML evaluates short-term memory. The test begins with a chase task to allow the patient to become familiar with the task context. The patient is shown a 10×10 grid of tiles on a computer touch screen. The patient is instructed to chase a moving tile around the grid. Once the patient understands the rules, he or she can proceed onto the timed chase test, where the patient must chase the target for 30 seconds. For the GML, the patient is shown the same 10×10 grid of tiles on a computer touch screen. […]

[2] = system: patients with mild-to-moderate AD; assay: Example D: twelve-item neuropsychiatric inventory (NPI-12); assay type: in vivo, human
Experimental: as §1
Statistical evaluation was performed using Statistical analysis software (SAS®, SAS Institute, Cary, NC). Changes from baseline in vital signs were analysed using a mixed model for repeated measures with fixed effects for baseline, treatment, time-point and treatment by time-point interaction. The exploratory PD endpoints were analysed using an analysis of covariance with change from baseline as the dependent variable, and baseline and treatment as covariates. The least square means (LSM) for each dose (and difference from placebo) are presented with the 90% CI, P-value, and ES. ES was calculated as the LSM difference from placebo divided by the pooled standard deviation. PD data were considered clinically meaningful when P-values were <0.10 and ESs were >0.4 (ie, moderate to large ES).

SMILES: CCOC(=O)N1C2CCC1CC(N1CCC3(CC1)CNC(=O)C3)C2 (centres unmarked) [HTL0018318, ethyl 3-(3-oxo-2,8-diazaspiro[4.5]dec-8-yl)-8-azabicyclo[3.2.1]octane-8-carboxylate]
- IDN attention (reaction time), ES ([1]; 15 mg, Day 28): 0.62
- IDN attention (reaction time), LSM difference from placebo ([1]; 15 mg, Day 28): 0.11
- ISL composite (immediate and delayed recall), LSM difference from placebo ([1]; 25 mg, Day 28): 0.21
- ISL composite, ES ([1]; 25 mg, Day 28): 0.48
- ISL-delayed recall, ES ([1]; 25 mg, Day 28): 0.49
- ISL-delayed recall, LSM difference from placebo ([1]; 25 mg, Day 28): 0.65
- ISL-immediate recall, ES ([1]; 25 mg, Day 28): 0.34
- ISL-immediate recall, LSM difference from placebo ([1]; 25 mg, Day 28): 1.11 words
- IDN attention (reaction time) ([1]; 5 and 25 mg, Day 28): Non-significant, improvements
- ONB reaction time or accuracy, GML task (forward or reverse) performance ([1]; any HTL0018318 dose): no statistically significant differences
- NPI-12 total score, ES ([2]; 5 mg): -0.73
- NPI-12 total score, LSM difference from placebo ([2]; 5 mg): −1.79
- NPI-12 total score, ES ([2]; 15 mg): −0.54
- NPI-12 total score, ES ([2]; 25 mg): −0.53
